GI50 and TGI data for 14 molecules are collected here from PubChem BioAssay (NCI).

Some test systems named below: ACHN renal; HCT-116 colon; NCI-H23 lung; OVCAR-4 ovarian; OVCAR-8 ovarian; SF-268 CNS; SK-MEL-2 melanoma; SK-MEL-5 melanoma; SNB-75 CNS; SW-620 colon.
Test in all cases: growth of human tumour cells (NCI), 48 h

“And” between values parts separate entries of the source, which are not always exact repeats. Identical values can stand only once.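 Interpolation was linear, between the two tested concentrations surrounding the appropriate level; five concentrations were tested over 48 hours in 96-well plates. GI50 marks 50% less growth. Definition used: TGI = concentration required for complete inhibition of growth.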

For `CO/N=C(/C)c1cccc(Nc2cc(-n3nnc4ccccc43)nc3ccccc23)c1`, the GI50 in the assay on ACHN renal was 42.3 µM; in the assay on HCT-116 colon it was 27 µM; with NCI-H23 lung, 33.6 µM; in the assay on OVCAR-4 ovarian, 65.6 µM; with OVCAR-8 ovarian it was 87.1 µM; with SF-268 CNS, 30.5 µM. For the same molecule, the GI50 with SK-MEL-2 melanoma is > 100 µM; with SK-MEL-5 melanoma, 14.4 µM; with SNB-75 CNS, > 100 µM; with SW-620 colon, 34.1 µM. The TGI in the assay with ACHN renal, with HCT-116 colon, with NCI-H23 lung, with OVCAR-4 ovarian, with OVCAR-8 ovarian and in the assay on SF-268 CNS was > 100 µM each time. In addition, the TGI in the assay on SK-MEL-2 melanoma was > 100 µM; in the assay with SK-MEL-5 melanoma, 32.5 µM; with SNB-75 CNS it was > 100 µM; with SW-620 colon, > 100 µM.

On to `COc1ccc(OC)c2c1[nH]c(=O)c1c3ccccc3cn21`, for which the GI50 with ACHN renal is 1.11 µM; in the assay on HCT-116 colon it was 0.673 µM; in the assay on NCI-H23 lung it was 1.49 µM; in the assay on OVCAR-4 ovarian, 1.38 µM; in the assay on OVCAR-8 ovarian, 1.26 µM; in the assay with SF-268 CNS, 1.42 µM. In addition, the GI50 is 2 µM in the assay with SK-MEL-2 melanoma, 1.53 µM in the assay on SK-MEL-5 melanoma, 1.44 µM with SNB-75 CNS and 0.59 µM in the assay with SW-620 colon. The TGI in the assay on ACHN renal is 2.37 µM; with HCT-116 colon, 2.01 µM; in the assay on NCI-H23 lung, 3.04 µM; with OVCAR-4 ovarian, 3.1 µM; in the assay with OVCAR-8 ovarian it was 3.36 µM; in the assay on SF-268 CNS it was 3.04 µM. The TGI amounted to 4.01 µM in the assay with SK-MEL-2 melanoma, 2.93 µM with SK-MEL-5 melanoma, 2.83 µM with SNB-75 CNS and 2.11 µM in the assay on SW-620 colon.

As for `CN1CC(=O)N2Cc3ccccc3-n3cccc3C2C1` (configuration not stated), the TGI in the assay with ACHN renal, with HCT-116 colon, with NCI-H23 lung, with OVCAR-4 ovarian, in the assay on OVCAR-8 ovarian and in the assay with SF-268 CNS was > 100 µM throughout. The TGI with SK-MEL-2 melanoma, in the assay with SK-MEL-5 melanoma, in the assay on SNB-75 CNS and in the assay on SW-620 colon was > 100 µM each time.

As for `CN1CCN(C2CCN(C(=O)Nc3cc(Oc4ccc(NC(=O)C5(C(=O)Nc6ccc(F)cc6)CC5)c(F)c4)ccn3)CC2)CC1`, the GI50 in the assay on ACHN renal is 1.3 µM; in the assay with HCT-116 colon, 1.05 µM; with NCI-H23 lung it was 1.23 µM; in the assay on OVCAR-4 ovarian it was 1.14 µM; with SK-MEL-2 melanoma, 0.744 µM; with SK-MEL-5 melanoma it was 2.43 µM. The values for the GI50 in the assay on SNB-75 CNS and with SW-620 colon were 0.365 µM and 1.43 µM, respectively. The TGI is > 10 µM in the assay on ACHN renal; > 10 µM in the assay on HCT-116 colon; > 3.42 µM in the assay with NCI-H23 lung; 9.84 µM in the assay with OVCAR-4 ovarian; > 10 µM in the assay with OVCAR-8 ovarian; > 2.96 µM in the assay on SF-268 CNS. The TGI in the assay with SK-MEL-2 melanoma is 2.18 µM; in the assay with SK-MEL-5 melanoma it was 6.36 µM; in the assay with SNB-75 CNS, > 1.97 µM; with SW-620 colon, > 10 µM.

On to `CC12C/C(=C\c3ccccc3)C(=O)C3C1CCCC32`, for which the TGI with ACHN renal, with HCT-116 colon, with NCI-H23 lung, in the assay with OVCAR-4 ovarian, in the assay with OVCAR-8 ovarian and in the assay with SF-268 CNS was > 100 µM in each case. The TGI with SK-MEL-2 melanoma, in the assay on SK-MEL-5 melanoma, with SNB-75 CNS and in the assay on SW-620 colon was > 100 µM each time.

Take `Oc1ccc(Nc2ncnc3c2sc2ncccc23)cc1`: the GI50 was < 0.01 µM in the assay with ACHN renal; < 0.01 µM with HCT-116 colon; < 0.01 µM in the assay with NCI-H23 lung; > 88.7 µM in the assay with OVCAR-4 ovarian; 0.0261 µM with OVCAR-8 ovarian; 0.0407 µM with SF-268 CNS. The GI50 in the assay on SK-MEL-2 melanoma is 27.3 µM; in the assay with SK-MEL-5 melanoma, 0.047 µM; with SNB-75 CNS, 0.0595 µM; with SW-620 colon it was 0.0824 µM. For the same molecule, the TGI in the assay on ACHN renal is 1.42 µM; in the assay with HCT-116 colon, > 100 µM; with NCI-H23 lung, 9.53 µM; with OVCAR-4 ovarian it was > 100 µM; in the assay with OVCAR-8 ovarian, > 30.9 µM; in the assay on SF-268 CNS, > 100 µM. The TGI is > 100 µM with SK-MEL-2 melanoma, > 100 µM in the assay with SK-MEL-5 melanoma, 7.35 µM in the assay with SNB-75 CNS and > 100 µM in the assay on SW-620 colon.

`C(=NCCN1CCOCC1)=NC1CCCCC1`: the TGI in the assay on ACHN renal, in the assay with HCT-116 colon, in the assay with NCI-H23 lung, with OVCAR-4 ovarian, with OVCAR-8 ovarian and with SF-268 CNS was > 100 µM in each case. The TGI with SK-MEL-2 melanoma, in the assay on SK-MEL-5 melanoma, with SNB-75 CNS and with SW-620 colon was > 100 µM in each case.

On to `CCCCCCCCCCCCCC(=O)OCC(C[As](=O)(O)O)OC(=O)CCCCCCCCCCCCC` (configuration not stated), for which the TGI with ACHN renal, in the assay on HCT-116 colon, in the assay on NCI-H23 lung, in the assay with OVCAR-4 ovarian, in the assay on OVCAR-8 ovarian and in the assay with SF-268 CNS was > 100 µM throughout. For the same molecule, the TGI in the assay on SK-MEL-2 melanoma was > 100 µM; in the assay on SK-MEL-5 melanoma, > 100 µM; in the assay on SNB-75 CNS it was > 100 µM; in the assay with SW-620 colon, 47 µM.

On to `O=c1/c(=C/c2ccccc2[N+](=O)[O-])sc2nnc(-c3ccco3)n12`, for which the TGI with ACHN renal is > 100 µM; with HCT-116 colon it was 58.8 µM; with NCI-H23 lung it was 64 µM; with OVCAR-4 ovarian, 40 µM; with OVCAR-8 ovarian it was 32.5 µM; with SF-268 CNS it was 46.3 µM. The TGI in the assay on SK-MEL-2 melanoma worked out at 34.6 µM; with SK-MEL-5 melanoma it was 34.4 µM; in the assay on SNB-75 CNS, 84.7 µM; with SW-620 colon, 46.8 µM.

Turning to `O=C1c2ccccc2C(=O)N1CCn1ccc(NC(c2ccccc2)(c2ccccc2)c2ccccc2)nc1=O`, the TGI is 92.7 µM in the assay on ACHN renal; 32.4 µM in the assay with HCT-116 colon; 60.2 µM with NCI-H23 lung; 59.2 µM in the assay on OVCAR-4 ovarian; > 100 µM with OVCAR-8 ovarian; 45.3 µM in the assay on SF-268 CNS. Further, the TGI in the assay on SK-MEL-2 melanoma was 43.2 µM; with SK-MEL-5 melanoma it was 31.2 µM; in the assay on SNB-75 CNS, 74 µM; in the assay with SW-620 colon, > 100 µM.

Turning to `COC(=O)C[C@](O)(CCCC(C)(C)O)C(=O)O[C@@H]1C(OC)=C[C@]23CCCN2CCc2cc4c(cc2[C@H]13)OCO4`, the GI50 in the assay on ACHN renal is 0.0407 µM; with HCT-116 colon, 0.134 µM and 0.0153 µM; with NCI-H23 lung, 0.0246 µM; in the assay on OVCAR-4 ovarian it was 0.0221 µM; in the assay on OVCAR-8 ovarian it was 0.0287 µM; with SF-268 CNS it was 0.046 µM. The GI50 in the assay on SK-MEL-2 melanoma was 0.0455 µM; with SK-MEL-5 melanoma it was 0.0149 µM; in the assay on SNB-75 CNS it was 0.0235 µM; in the assay with SW-620 colon, 0.0293 µM. For the same molecule, the TGI was 4.64 µM and 0.541 µM in the assay with ACHN renal; 0.548 µM and 0.086 µM in the assay on NCI-H23 lung; 1.15 µM and 0.149 µM in the assay on OVCAR-4 ovarian; 0.99 µM and 0.446 µM with SF-268 CNS; 0.994 µM and 0.198 µM in the assay on SK-MEL-2 melanoma; 0.657 µM and 0.0931 µM with SNB-75 CNS. In the assay with SW-620 colon, the TGI was 2.59 µM and 5.05 µM.

For `c1ccc(-c2nnc(-c3ccccn3)s2)nc1`, the GI50 in the assay with ACHN renal, in the assay on HCT-116 colon, in the assay with NCI-H23 lung, in the assay with OVCAR-4 ovarian, in the assay on OVCAR-8 ovarian and in the assay with SF-268 CNS was > 100 µM in each case. For the same molecule, the GI50 in the assay on SK-MEL-2 melanoma is > 100 µM; in the assay on SK-MEL-5 melanoma it was > 100 µM; with SNB-75 CNS, 72.9 µM; in the assay with SW-620 colon, > 100 µM. Besides, the TGI with ACHN renal, with HCT-116 colon, with NCI-H23 lung, with OVCAR-4 ovarian, in the assay with OVCAR-8 ovarian and in the assay on SF-268 CNS was > 100 µM each time. In addition, the TGI in the assay on SK-MEL-2 melanoma, in the assay with SK-MEL-5 melanoma, in the assay with SNB-75 CNS and in the assay with SW-620 colon was > 100 µM in each case.

As for `COc1cc(C(=O)N2CCN(C=O)C2=S)cc(OC)c1OC`, the GI50 was 20.1 µM in the assay with ACHN renal; 35.6 µM in the assay on HCT-116 colon; 25.9 µM in the assay on NCI-H23 lung; 24.1 µM with OVCAR-4 ovarian; 24 µM in the assay with OVCAR-8 ovarian; 21.4 µM with SF-268 CNS. Moreover, the GI50 in the assay with SK-MEL-2 melanoma is 19.9 µM; in the assay with SNB-75 CNS it was 10.9 µM; with SW-620 colon, 26.8 µM. The TGI with ACHN renal was 44.1 µM; with HCT-116 colon it was > 100 µM; with NCI-H23 lung, 62 µM; with OVCAR-4 ovarian it was 58.9 µM; in the assay on OVCAR-8 ovarian, 65.2 µM; in the assay with SF-268 CNS, 43.7 µM. For the same molecule, the figures for the TGI in the assay with SK-MEL-2 melanoma, in the assay on SNB-75 CNS and with SW-620 colon were 42 µM, 34.6 µM and 70 µM, respectively.

For `O=C1CCC2(c3ccc(Cl)cc3)Nc3ncccc3N12` (configuration not stated), the TGI in the assay with ACHN renal, in the assay with NCI-H23 lung, with OVCAR-4 ovarian, in the assay on OVCAR-8 ovarian, with SF-268 CNS and with SK-MEL-2 melanoma was > 100 µM throughout. For the same molecule, the TGI in the assay with SK-MEL-5 melanoma, with SNB-75 CNS and in the assay with SW-620 colon was > 100 µM in each case.
